Source: patent US10526311B2 (ASTEX THERAPEUTICS LIMITED, priority 2015, dated 2020)
Where a name gives a salt, the structure may show the parent alone. Read-outs that look alike come from different tables or passages of the source.

Test system: SJSA-1
Test: Protocol B: SJSA-1 CellTiter-Glo cell viability
[1] = Homo sapiens, SJSA-1, 72 h, read-out: SJSA1 IC50 (Protocol B), SJSA-1 cells, CellTiter-Glo, 72 hrs
[2] = Homo sapiens, SJSA-1, 72 h, read-out: SJSA1 IC50 (μM) (Protocol B), SJSA-1, Protocol B (CellTiter-Glo), 72 hrs
[3] = read-out: SJSA1 IC50 (Protocol B), SJSA-1 cells, CellTiter-Glo, 72 hrs

Compound | IC50 [2] | IC50 [3] | further results
CN1CCN(CC(C)(O)c2cc(F)c3c(c2)C(=O)N(Cc2ccc(C#N)cn2)[C@@]3(OCC2(C#N)CC2)c2ccc(Cl)cc2)CC1 (stereo partly drawn) [Example 279, 6-{[(1R)-1-(4-chlorophenyl)-1-[(1-cyanocyclopropyl)methoxy]-7-fluoro-5-[2-hydroxy-1-(4-methylpiperazin-1-yl)propan-2-yl]-3-oxo-2,3-dihydro-1H-isoindol-2-yl]methyl}pyridine-3-carbonitrile] | – | – | IC50 [1]: 0.57 µM
CO[C@]1(c2ccc(Cl)cc2)c2c(F)cc(C(C)(O)C3CN(C(=O)CO)C3)cc2C(=O)N1Cc1ccc(Cl)cn1 (single isomer, unassigned) [Example 391] | – | – | IC50 [1]: 0.66 µM
Cn1cc(C(C)(O)c2cc(F)c3c(c2)C(=O)N(Cc2ccc(C#N)cn2)[C@@]3(O[C@H]2C[C@@H](O)C2)c2ccc(Cl)cc2)cn1 (stereo partly drawn) [Example 355, 6-{[1-(4-chlorophenyl)-7-fluoro-5-[1-hydroxy-1-(1-methyl-1H-pyrazol-4-yl)ethyl]-3-oxo-1-[cis-3-hydroxycyclobutoxy]-2,3-dihydro-1H-isoindol-2-yl]methyl}pyridine-3-carbonitrile] | – | – | IC50 [1]: 4.7 µM
Cn1cc(C(O)(c2cc(F)c3c(c2)C(=O)N(Cc2ccc(C#N)cn2)[C@@]3(O[C@H]2CCOC2)c2ccc(Cl)cc2)C(F)(F)F)cn1 (stereo partly drawn) [Example 371, 6-{[(1R)-1-(4-chlorophenyl)-7-fluoro-3-oxo-1-[(3S)-oxolan-3-yloxy]-5-[2,2,2-trifluoro-1-hydroxy-1-(1-methyl-1H-pyrazol-4-yl)ethyl]-2,3-dihydro-1H-isoindol-2-yl]methyl}pyridine-3-carbonitrile] | 2.3 µM | – | –
CC[C@@](O)(c1cc(F)c2c(c1)C(=O)N(Cc1ncc(Cl)cc1C(=O)O)[C@@]2(OC)c1ccc(Cl)cc1)C1(F)CCOCC1 [Example 514, 5-chloro-2-{[(1R)-1-(4-chlorophenyl)-7-fluoro-5-[(1R)-1-(4-fluorooxan-4-yl)-1-hydroxypropyl]-1-methoxy-3-oxo-2,3-dihydro-1H-isoindol-2-yl]methyl}pyridine-3-carboxylic acid (tris(hydroxymethyl)aminomethane salt)] | 0.64 µM | – | –
CO[C@]1(c2ccc(Cl)cc2)c2c(F)cc(C(C)(O)C3CN(C(C)=O)C3)cc2C(=O)N1Cc1ccc(Cl)cn1 (single isomer, unassigned) [Example 390] | – | 0.63 µM | –
CCC(O)(c1cc(F)c2c(c1)C(=O)N(Cc1ccc(Cl)cn1)[C@@]2(OC[C@@H](C)O)c1ccc(Cl)cc1)C1(F)CCNCC1 (single isomer, unassigned) [Example 549] | 0.27 µM | – | –
CC(O)(c1cc(F)c2c(c1)C(=O)N(Cc1ncc(Cl)cn1)[C@@]2(OCCO)c1ccc(Cl)cc1)C1(F)CCOCC1 (single isomer, unassigned) [Example 578] | 0.12 µM | – | –
Cc1nnc(C(C)(O)c2cc(F)c3c(c2)C(=O)N(Cc2ccc(Cl)cn2)[C@@]3(OCC2(O)CC2)c2ccc(Cl)cc2)o1 (stereo partly drawn) [Example 186, (3R)-3-(4-Chlorophenyl)-2-[(5-chloropyridin-2-yl)methyl]-4-fluoro-6-[1-hydroxy-1-(5-methyl-1,3,4-oxadiazol-2-yl)ethyl]-3-[(1-hydroxycyclopropyl)methoxy]-2,3-dihydro-1H-isoindol-1-one] | – | 0.42 µM | –
Cc1nnc(C(C)(O)c2cc(F)c3c(c2)C(=O)N(Cc2ccc(Cl)cn2)[C@@]3(OCC2(O)CC2)c2ccc(Cl)cc2)o1 (stereo partly drawn) [Example 185, (3R)-3-(4-Chlorophenyl)-2-[(5-chloropyridin-2-yl)methyl]-4-fluoro-6-[1-hydroxy-1-(5-methyl-1,3,4-oxadiazol-2-yl)ethyl]-3-[(1-hydroxycyclopropyl)methoxy]-2,3-dihydro-1H-isoindol-1-one] | – | 2.2 µM | –
CCC(O)(c1cc(F)c2c(c1)C(=O)N(Cc1ccc(C#N)cn1)[C@@]2(OCC1(CO)CC1)c1ccc(Cl)cc1)c1cn(C)cn1 (stereo partly drawn) [Example 337, 6-{[(1R)-1-(4-chlorophenyl)-7-fluoro-5-[1-hydroxy-1-(1-methyl-1H-imidazol-4-yl)propyl]-1-{[1-(hydroxymethyl)cyclopropyl]methoxy}-3-oxo-2,3-dihydro-1H-isoindol-2-yl]methyl}pyridine-3-carbonitrile] | 0.058 µM | – | –
CCC(O)(c1cc(F)c2c(c1)C(=O)N(Cc1ncc(C#N)cn1)[C@@]2(O[C@H]1CCOC1)c1ccc(Cl)cc1)C1(F)CCNCC1 (single isomer, unassigned) [Example 547] | 0.96 µM | – | –
CCC(O)(c1cc(F)c2c(c1)C(=O)N(Cc1ncc(Cl)cn1)[C@@]2(OCC1(C#N)CC1)c1ccc(Cl)cc1)C1(F)CCNCC1 (single isomer, unassigned) [Example 545] | 0.094 µM | – | –
COc1ccc(CN2C(=O)c3cc(C(C)(O)c4cnn(C)c4)cc(F)c3[C@]2(OCC2(CO)CC2)c2ccc(Cl)cc2)nc1 (single isomer, unassigned) [Example 224] | – | 0.12 µM | –
CO[C@]1(c2ccc(Cl)cc2)c2c(F)cc(C(C)(O)c3cn(C)c(C)n3)cc2C(=O)N1Cc1ccc(Cl)cn1 (single isomer, unassigned) [Example 161] | – | 4.3 µM | –
CCC(O)(c1cc(F)c2c(c1)C(=O)N(Cc1ccc(C#N)cn1)[C@@]2(O[C@H]1CCOC1)c1ccc(Cl)cc1)c1ccn(C)c(=O)c1 (single isomer, unassigned) [Example 374] | 0.85 µM | – | –

Compound | IC50 [2] | IC50 [3] | further results
CO[C@]1(c2ccc(Cl)cc2)c2c(F)cc(C(C)(O)C3CN(C(C)=O)C3)cc2C(=O)N1Cc1ccc(Cl)cn1 (single isomer, unassigned) [Example 389] | – | 4.2 µM | –
[2H]C([2H])(O)C1(C([2H])([2H])O[C@]2(c3ccc(Cl)cc3)c3c(F)cc(C(O)(CC)c4cn(C)cn4)cc3C(=O)N2Cc2ccc(C#N)cn2)CC1 (single isomer, unassigned) [Example 440] | – | – | IC50 (read-out: SJSA1 IC50 (μM) (Protocol B), SJSA-1, Protocol B (CellTiter-Glo), 72 hrs): 1.9 µM
CO[C@]1(c2ccc(Cl)cc2)c2c(F)cc(C(C)(O)c3nccs3)cc2C(=O)N1Cc1ccc(Cl)cn1 (stereo partly drawn) [Example 166, (3R)-3-(4-Chlorophenyl)-2-[(5-chloropyridin-2-yl)methyl]-4-fluoro-6-[1-hydroxy-1-(1,3-thiazol-2-yl)ethyl]-3-methoxy-2,3-dihydro-1H-isoindol-1-one] | – | 3.8 µM | –
CO[C@]1(c2ccc(Cl)cc2)c2c(F)cc(C(C)(O)c3ccn(C)n3)cc2C(=O)N1Cc1ccc(Cl)cn1 (stereo partly drawn) [Example 189, (3R)-3-(4-Chlorophenyl)-2-[(5-chloropyridin-2-yl)methyl]-4-fluoro-6-[1-hydroxy-1-(1-methyl-1H-pyrazol-3-yl)ethyl]-3-methoxy-2,3-dihydro-1H-isoindol-1-one] | – | 1 µM | –
CC[C@@](O)(c1cc(F)c2c(c1)C(=O)N(Cc1ncc(C#N)cn1)[C@@]2(O[C@H]1CCOC1)c1ccc(Cl)cc1)C1(F)CCOCC1 [Example 507, 2-{[(1R)-1-(4-chlorophenyl)-7-fluoro-5-[(1R)-1-(4-fluorooxan-4-yl)-1-hydroxypropyl]-3-oxo-1-[(3S)-oxolan-3-yloxy]-2,3-dihydro-1H-isoindol-2-yl]methyl}pyrimidine-5-carbonitrile] | 0.02 µM | – | –
CC[C@@](O)(c1cc(F)c2c(c1)C(=O)N(Cc1ncc(Cl)cc1O)[C@@]2(O[C@H]1CCOC1)c1ccc(Cl)cc1)C1CCN(C)CC1 [Example 568, 2-[(5-chloro-3-hydroxypyridin-2-yl)methyl]-3-(4-chlorophenyl)-4-fluoro-6-[(1S)-1-hydroxy-1-(1-methylpiperidin-4-yl)propyl]-3-[(3S)-oxolan-3-yloxy]-2,3-dihydro-1H-isoindol-1-one] | 0.094 µM | – | –
CCC(O)(c1cc(F)c2c(c1)C(=O)N(Cc1ccc(C#N)cn1)[C@@]2(O[C@H]1CCOC1)c1ccc(Cl)cc1)C1(F)CCNCC1 (single isomer, unassigned) [Example 546] | 0.7 µM | – | –
CCC(O)(c1cc(F)c2c(c1)C(=O)N(Cc1ccc(C#N)cn1)[C@@]2(OCCO)c1ccc(Cl)cc1)C1(F)CCOCC1 (single isomer, unassigned) [Example 499] | 0.053 µM | – | –
CCC(O)(c1cc(F)c2c(c1)C(=O)N(Cc1ccc(C#N)cn1)[C@@]2(OCC1(F)COC1)c1ccc(Cl)cc1)c1cn(C)cn1 (single isomer, unassigned) [Example 435] | 0.015 µM | – | –
CO[C@]1(c2ccc(Cl)cc2)c2c(F)cc(C(C)(O)c3cnn(CCN(C)C)c3)cc2C(=O)N1Cc1ccc(Cl)cn1 (single isomer, unassigned) [Example 192] | – | 1.4 µM | –
CO[C@]1(c2ccc(Cl)cc2)c2c(F)cc(C(C)(O)c3cnn(C4CN(C(C)=O)C4)c3)cc2C(=O)N1Cc1ccc(Cl)cn1 (single isomer, unassigned) [Example 182] | – | – | IC50 [1]: 0.88 µM
CO[C@]1(c2ccc(Cl)cc2)c2c(F)cc(C(C)(O)C3CN(C(=O)N(C)C)C3)cc2C(=O)N1Cc1ccc(C#N)cn1 (single isomer, unassigned) [Example 393] | 0.79 µM | – | –
CC[C@@](O)(c1cc(F)c2c(c1)C(=O)N(Cc1ncc(Cl)cn1)[C@@]2(O[C@H]1C[C@@H](O)C1)c1ccc(Cl)cc1)C1CCN(C)CC1 [Example 560, (3R)-3-(4-chlorophenyl)-2-[(5-chloropyrimidin-2-yl)methyl]-4-fluoro-6-[(1S)-1-hydroxy-1-(1-methylpiperidin-4-yl)propyl]-3-[cis-3-hydroxycyclobutoxy]-2,3-dihydro-1H-isoindol-1-one] | 0.13 µM | – | –
[2H]C([2H])(O)C1(C([2H])([2H])O[C@]2(c3ccc(Cl)cc3)c3c(F)cc(C(C)(O)c4cnn(C)c4)cc3C(=O)N2Cc2ccc(C#N)cn2)CC1 (single isomer, unassigned) [Example 353] | – | 0.27 µM | –
CO[C@]1(c2ccc(Cl)cc2)c2c(F)cc(C(C)(O)c3ncc[nH]3)cc2C(=O)N1Cc1ccc(Cl)cn1 (stereo partly drawn) [Example 164, (3R)-3-(4-chlorophenyl)-2-[(5-chloropyridin-2-yl)methyl]-4-fluoro-6-[1-hydroxy-1-(1H-imidazol-2-yl)ethyl]-3-methoxy-2,3-dihydro-1H-isoindol-1-one] | – | 2.2 µM | –
